Reference: patent US7582604B2, “Template-fixed peptidomimetics with antibacterial activity” (Polyphor Ltd., priority 2002, dated 2009)
Values after ≈ are worked out from the molar mass of the structure shown. Where a SMILES comes first, the peptide text is derived from it. [ ]: non-standard residue; d: D form.

Tests used:
[1] = tested on: P. aeruginosa VO216085 (clinical isolate); format: cell-based, Pseudomonas aeruginosa
Protocol: (§1) Lyophilized peptides were weighed on a Microbalance (Mettler MT5) and dissolved in sterile water containing 0.01% acetic acid.
(§2) The selective antimicrobial activities of the peptides were determined by the standard NCCLS broth microdilution method (see ref 1, below) examined in sterile 96-wells plates (Nunclon polystyrene microtiter plates) in a total volume of 100 μl. Innocula of the microorganisms were prepared with 0.5 Mcfarland standard and then diluted into Müeller-Hinton (MH^+) broth to give appr. 10^6 colony forming units (CFU)/rnl for bacteria Aliquots (50 μl) of the innocula were added to 50 μl of MH broth containing the peptide in serial twofold dilutions. For the screening of the peptides displaying selectivity, the following microorganisms were used: Escherichia coli (ATCC 25922), Pseudomonas aeruginosa (P. aeruginosa) (ATCC 27853), Staphylococcus aureus (ATCC 29213 and ATCC 25923), and clinical isolates of Pseudomonas aeruginosa (P. aeruginosa) V02 16085 and Acinetobacter (Acinetobacter V04 19905/1, Acinetobacter V12 21143/1 and Acinetobacter V12 21193/1). Antimicrobial activities of the peptides were expressed as the minimal inhibitory concentration (MIC) in μg/ml at which no visible growth was observed after 18-20 hours of incubation of the microtiter plates at 37° C.
(§3) Salt sensitivity of the peptides was tested by the microtiter serial dilution assay as described above. Only MH broth was replaced by MH broth containing 0.9% NaCl.

[2] = tested on: P. aeruginosa ATCC 278853; format: cell-based, Pseudomonas aeruginosa
Protocol: as §1, §2, §3

[3] = tested on: Escherichia coli ATCC 25922; format: cell-based
Protocol: as §1, §2, §3

[4] = tested on: Acinetobacter V12 21193/1 (clinical isolate); format: cell-based
Protocol: as §1, §2, §3

[5] = tested on: Acinetobacter V12 21143/1 (clinical isolate); format: cell-based
Protocol: as §1, §2, §3

[6] = tested on: human red blood cells (hRBC); format: cell-based; settings: red cells of human, 1 h
Protocol: The peptides were tested for their hemolytic activity against human red blood cells (hRBC). Fresh hRBC were washed three times with phosphate buffered saline (PBS) by centrifugation for 10 min at 2000×g. Peptides at a concentration of 100 μg/ml were incubated with 20% v/v hRBC for 1 hour at 37° C. The final erythrocyte concentration was appr. 0.9×10^9/ml. A value of 0% resp. 100% cell lysis was determined by incubation of the hRBC in the presence of PBS alone and resp. 0.1% Triton X-100 in H2O. The samples were centrifuged and the supernatant was 20 fold diluted in PBS buffer and the optical density (OD) of the sample at […] was measured. The 100% lysis value (OD540H2O) gave an OD of approximately 1.6-2.0. Percent hemolysis was calculated as follows: […]

[7] = tested on: Staphylococcus aureus ATCC 29213; assay: MIC, NCCLS broth microdilution in Mueller-Hinton broth; format: cell-based; settings: 18-20 hours at 37° C.
Protocol: as §1, §2

[8] = tested on: Escherichia coli ATCC 43827; format: cell-based

Compound: CC(C)C[C@@H]1NC(=O)[C@H](Cc2c[nH]c3ccccc23)NC(=O)[C@H](CCCNC(=N)N)NC(=O)[C@@H]2CCCN2C(=O)[C@H]2CCCN2C(=O)[C@H](CCCNC(=N)N)NC(=O)[C@H](C(C)C)NC(=O)[C@H](Cc2ccc(O)cc2)NC(=O)[C@H](CCCCN)NC(=O)[C@H](Cc2c[nH]c3ccccc23)NC(=O)[C@H](CCCNC(=N)N)NC(=O)[C@H](CCCNC(=N)N)NC(=O)[C@H](CCCCN)NC(=O)[C@H](CCCCN)NC1=O [Ex. 2] (cyclo(RWLKKRRWKYVR[dP]P))
- Minimal inhibitory concentration (MIC) P. aeruginosa VO216085 [1]: 6.2 µg/mL (≈ 3.18 µM)
- Minimal inhibitory concentration (MIC) P. aeruginosa ATCC 278853 [2]: 9.4 µg/mL (≈ 4.82 µM)
- Minimal inhibitory concentration (MIC) Escherichia coli ATCC 25922 [3]: 100 µg/mL (≈ 51.2 µM)
- Minimal inhibitory concentration (MIC) Acinetobacter V12 21193/1 [4]: 25 µg/mL (≈ 12.8 µM)
- Minimal inhibitory concentration (MIC) Acinetobacter V12 21143/1 [5]: 12.5 µg/mL (≈ 6.41 µM)
- Hemolysis at 100 μg/ml (percentage hemolysis) [6]: 0.5%
- Minimal inhibitory concentration (MIC) Staphylococcus attreus ATCC 29213 [7]: 100 µg/mL (≈ 51.2 µM)
- Minimal inhibitory concentration (MIC) Escherichia coli ATCC 43827 [8]: 100 µg/mL (≈ 51.2 µM)

Compound: CC(C)C[C@@H]1NC(=O)[C@H](Cc2c[nH]c3ccccc23)NC(=O)[C@H](CCCNC(=N)N)NC(=O)[C@H](CCCNC(=N)N)NC(=O)[C@H](CCCCN)NC(=O)[C@H](CCCCN)NC(=O)[C@H](CC(C)C)NC(=O)[C@H](Cc2c[nH]c3ccccc23)NC(=O)[C@H](CCCNC(=N)N)NC(=O)[C@@H]2CCCN2C(=O)[C@H]2CCCN2C(=O)[C@H](CCCNC(=N)N)NC(=O)[C@H](Cc2ccc(O)cc2)NC(=O)[C@H](Cc2ccc(O)cc2)NC1=O [compound 1] (cyclo(RWLKKRRWLYYR[dP]P))
- Minimal inhibitory concentration (MIC) P. aeruginosa VO216085 [1]: 50 µg/mL (≈ 25 µM)
- Minimal inhibitory concentration (MIC) P. aeruginosa ATCC 278853 [2]: 50 µg/mL (≈ 25 µM)
- Minimal inhibitory concentration (MIC) Escherichia coli ATCC 25922 [3]: 100 µg/mL (≈ 50 µM)
- Minimal inhibitory concentration (MIC) Acinetobacter V12 21193/1 [4]: 6.2 µg/mL (≈ 3.1 µM)
- Minimal inhibitory concentration (MIC) Acinetobacter V12 21143/1 [5]: 6.2 µg/mL (≈ 3.1 µM)
- Hemolysis at 100 μg/ml (percentage hemolysis) [6]: 0.5%
- Minimal inhibitory concentration (MIC) Staphylococcus attreus ATCC 29213 [7]: 25 µg/mL (≈ 12.5 µM)
- Minimal inhibitory concentration (MIC) Escherichia coli ATCC 43827 [8]: 200 µg/mL (≈ 100 µM)

Compound: CC(C)C[C@@H]1NC(=O)[C@H](Cc2c[nH]c3ccccc23)NC(=O)[C@H](CCCNC(=N)N)NC(=O)[C@@H]2CCCN2C(=O)[C@H]2CCCN2C(=O)[C@H](CCCNC(=N)N)NC(=O)[C@H](Cc2ccc(O)cc2)NC(=O)[C@H]([C@@H](C)O)NC(=O)[C@H](CCCCN)NC(=O)[C@H](Cc2c[nH]c3ccccc23)NC(=O)[C@H](CCCNC(=N)N)NC(=O)[C@H](CCCNC(=N)N)NC(=O)[C@H](CCCCN)NC(=O)[C@H](CCCCN)NC1=O [compound 3] (cyclo(RWLKKRRWKTYR[dP]P))
- Minimal inhibitory concentration (MIC) P. aeruginosa VO216085 [1]: 9.4 µg/mL (≈ 4.81 µM)
- Minimal inhibitory concentration (MIC) P. aeruginosa ATCC 278853 [2]: 200 µg/mL (≈ 102 µM)
- Minimal inhibitory concentration (MIC) Escherichia coli ATCC 25922 [3]: 200 µg/mL (≈ 102 µM)
- Minimal inhibitory concentration (MIC) Acinetobacter V12 21193/1 [4]: 100 µg/mL (≈ 51.2 µM)
- Minimal inhibitory concentration (MIC) Acinetobacter V12 21143/1 [5]: 25 µg/mL (≈ 12.8 µM)
- Hemolysis at 100 μg/ml (percentage hemolysis) [6]: 1.5%
- Minimal inhibitory concentration (MIC) Staphylococcus attreus ATCC 29213 [7]: 100 µg/mL (≈ 51.2 µM)
- Minimal inhibitory concentration (MIC) Escherichia coli ATCC 43827 [8]: 200 µg/mL (≈ 102 µM)

Compound: CC(C)C[C@@H]1NC(=O)[C@H](Cc2c[nH]c3ccccc23)NC(=O)[C@H](CCCNC(=N)N)NC(=O)[C@@H]2CCCN2C(=O)[C@H]2CCCN2C(=O)[C@H](CCCNC(=N)N)NC(=O)[C@H](Cc2ccc(O)cc2)NC(=O)[C@H](CCC(N)=O)NC(=O)[C@H](CCCCN)NC(=O)[C@H](Cc2c[nH]c3ccccc23)NC(=O)[C@H](CCCNC(=N)N)NC(=O)[C@H](CCCNC(=N)N)NC(=O)[C@H](CCCCN)NC(=O)[C@H](CCCCN)NC1=O [compound 4] (cyclo(RWLKKRRWKQYR[dP]P))
- Minimal inhibitory concentration (MIC) P. aeruginosa VO216085 [1]: 3.1 µg/mL (≈ 1.57 µM)
- Minimal inhibitory concentration (MIC) P. aeruginosa ATCC 278853 [2]: 6.2 µg/mL (≈ 3.13 µM)
- Minimal inhibitory concentration (MIC) Escherichia coli ATCC 25922 [3]: 100 µg/mL (≈ 50.5 µM)
- Minimal inhibitory concentration (MIC) Acinetobacter V12 21193/1 [4]: 25 µg/mL (≈ 12.6 µM)
- Minimal inhibitory concentration (MIC) Acinetobacter V12 21143/1 [5]: 12.5 µg/mL (≈ 6.31 µM)
- Hemolysis at 100 μg/ml (percentage hemolysis) [6]: 0.6%
- Minimal inhibitory concentration (MIC) Staphylococcus attreus ATCC 29213 [7]: 100 µg/mL (≈ 50.5 µM)
- Minimal inhibitory concentration (MIC) Escherichia coli ATCC 43827 [8]: 200 µg/mL (≈ 101 µM)

Compound: CC(C)C[C@@H]1NC(=O)[C@H](Cc2c[nH]c3ccccc23)NC(=O)[C@H](CCCNC(=N)N)NC(=O)[C@@H]2CCCN2C(=O)[C@H]2CCCN2C(=O)[C@H](CCCNC(=N)N)NC(=O)[C@H](Cc2ccc(O)cc2)NC(=O)[C@H](Cc2ccc(O)cc2)NC(=O)[C@H](CCCCN)NC(=O)[C@H](Cc2c[nH]c3ccccc23)NC(=O)[C@H](CCCNC(=N)N)NC(=O)[C@H](CCCNC(=N)N)NC(=O)[C@H](CCCCN)NC(=O)[C@H](C(C)C)NC1=O [compound 5] (cyclo(RWLVKRRWKYYR[dP]P))
- Hemolysis at 100 μg/ml (percentage hemolysis) [6]: 0.5%
- Minimal inhibitory concentration (MIC) Staphylococcus attreus ATCC 29213 [7]: 100 µg/mL (≈ 50.3 µM)

Compound: CC(C)C[C@@H]1NC(=O)[C@H](Cc2c[nH]c3ccccc23)NC(=O)[C@H](CCCNC(=N)N)NC(=O)[C@@H]2CCCN2C(=O)[C@H]2CCCN2C(=O)[C@H](CCCNC(=N)N)NC(=O)[C@H](Cc2ccc(O)cc2)NC(=O)[C@H](Cc2ccc(O)cc2)NC(=O)[C@H](C(C)C)NC(=O)[C@H](Cc2c[nH]c3ccccc23)NC(=O)[C@H](CCCNC(=N)N)NC(=O)[C@H](CCCNC(=N)N)NC(=O)[C@H](CCCCN)NC(=O)[C@H](CCCCN)NC1=O [compound 6] (cyclo(RWLKKRRWVYYR[dP]P))
- Hemolysis at 100 μg/ml (percentage hemolysis) [6]: 0.5%
- Minimal inhibitory concentration (MIC) Staphylococcus attreus ATCC 29213 [7]: 100 µg/mL (≈ 50.3 µM)

Compound: CC(C)C[C@@H]1NC(=O)[C@H](Cc2c[nH]c3ccccc23)NC(=O)[C@H](CCCNC(=N)N)NC(=O)[C@@H]2CCCN2C(=O)[C@H]2CCCN2C(=O)[C@H](CCCNC(=N)N)NC(=O)[C@H](CCC(N)=O)NC(=O)[C@H](Cc2ccc(O)cc2)NC(=O)[C@H](CCCCN)NC(=O)[C@H](Cc2c[nH]c3ccccc23)NC(=O)[C@H](CCCNC(=N)N)NC(=O)[C@H](CCCNC(=N)N)NC(=O)[C@H](CCCCN)NC(=O)[C@H](CCCCN)NC1=O [compound 7] (cyclo(RWLKKRRWKYQR[dP]P))
- Hemolysis at 100 μg/ml (percentage hemolysis) [6]: 0.7%
- Minimal inhibitory concentration (MIC) Staphylococcus attreus ATCC 29213 [7]: 200 µg/mL (≈ 101 µM)

Compound: CC(C)C[C@@H]1NC(=O)[C@H](Cc2c[nH]c3ccccc23)NC(=O)[C@H](CCCNC(=N)N)NC(=O)[C@@H]2CCCN2C(=O)[C@H]2CCCN2C(=O)[C@H](CCCNC(=N)N)NC(=O)[C@H](CC(C)C)NC(=O)[C@H](Cc2ccc(O)cc2)NC(=O)[C@H](CCCCN)NC(=O)[C@H](Cc2c[nH]c3ccccc23)NC(=O)[C@H](CCCNC(=N)N)NC(=O)[C@H](CCCNC(=N)N)NC(=O)[C@H](CCCCN)NC(=O)[C@H](CCCCN)NC1=O [compound 8] (cyclo(RWLKKRRWKYLR[dP]P))
- Hemolysis at 100 μg/ml (percentage hemolysis) [6]: 0.4%
- Minimal inhibitory concentration (MIC) Staphylococcus attreus ATCC 29213 [7]: 100 µg/mL (≈ 50.9 µM)
